{
  "source": "patent US8415309B2",
  "about": "“Bicyclic nucleosides and nucleotides as therapeutic agents” (priority 2009, dated 2013)",
  "key": {"HCV NS5b polymerase": {"target": "T1, HCV NS5b polymerase (Hepatitis C virus genotype 1b, UniProt P26663)", "T1 construct": "100 nM HCV NS5bΔ55 (genotype 1b) in a 50 μl reaction mixture", "T1 sequence (P26663 2420-2955)": "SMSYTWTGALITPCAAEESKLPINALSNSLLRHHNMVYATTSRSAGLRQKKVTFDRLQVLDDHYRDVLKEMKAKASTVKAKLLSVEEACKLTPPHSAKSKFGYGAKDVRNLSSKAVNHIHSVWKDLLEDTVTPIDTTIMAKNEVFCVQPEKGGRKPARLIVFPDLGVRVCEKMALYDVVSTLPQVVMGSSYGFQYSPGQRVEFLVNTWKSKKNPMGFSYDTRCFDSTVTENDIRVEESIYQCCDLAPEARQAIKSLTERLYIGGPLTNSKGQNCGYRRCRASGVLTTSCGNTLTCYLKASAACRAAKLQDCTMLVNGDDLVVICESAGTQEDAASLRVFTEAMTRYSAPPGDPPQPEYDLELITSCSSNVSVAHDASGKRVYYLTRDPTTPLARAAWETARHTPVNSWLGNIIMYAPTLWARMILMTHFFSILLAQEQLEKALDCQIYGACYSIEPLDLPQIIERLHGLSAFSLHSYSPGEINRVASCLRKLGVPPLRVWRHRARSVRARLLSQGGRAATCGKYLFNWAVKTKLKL", "test": "HCV NS5b Polymerase Ki Determination Assay", "type": "biochemical", "procedure": "A modified method of the NS5b Polymerase inhibition assay was used to determine the Ki and the mode of action for NS5b inhibitor compounds. The enzyme and template were fixed at 100 nM and 20 µg/mL and all other reaction conditions were identical to the NS5b polymerase inhibition assay. The velocity of NS5b reactions were monitored at different ATP and inhibitor concentrations. The ATP concentration ranged from 0.1 μM to 1000 μM, and the concentration of the inhibitor ranged from 0.003 fold to 7 fold of the IC50 value. Velocities obtained at each ATP and inhibitor concentration were analysed using Graph Pad Prism to identify the mode of inhibition and Ki for inhibitor compounds. Under these conditions, the Ki for Compound 25 is 0.08 μM."}, "[1]": {"system": "primary human hepatocytes", "test": "In vitro anabolism of Compound 9, intracellular triphosphate in primary human hepatocytes", "type": "in vitro ADME", "procedure": "(§1) In vitro anabolism of Compound 9 and the intracellular accumulation of its triphosphate (Compound 25) were studied in adherent Huh-7 and plated primary human hepatocytes. The Huh-7 human hepatoma liver cells (JCRB0403 http://cellbank.nibio.go.jp/) are maintained in DMEM containing 10% fetal bovine serum (FBS). Huh-7 cell clones carrying a HCV subgenomic replicon (Lohmann et al., 1999. Science 285: 110-113) are maintained in DMEM supplemented with 10% FBS and 0.25 mg/ml G418. The cell lines are grown at 37° C. in a 5% CO2-95% air atmosphere. Plated primary human hepatocytes (6-well Collagen/No Overlay) were purchased from Cellz Direct (NC, USA) and maintained in InVitroGro Medium (Celsis, In Vitro Technologies, MD USA) under the same incubation conditions.\n(§2) For intracellular anabolism studies, Huh-7 cells are trypsinized, harvested, re-suspended in DMEM supplemented with 10% FBS, counted and seeded at a density of 0.7×10^6 cells per well in a six-well plate and incubated for a period of 24 hr at 37° C. in 5% CO^2 atmosphere. Media is removed and replaced with fresh DMEM+10% FBS containing 10 μM Compound 9 for a period of 24 hr at 37° C. The cell monolayer is then quickly washed three times with drug-free medium to remove extracellular Compound 9 and each well is incubated with fresh DMEM+10% FBS for a specified time period (i.e. 6-wells at 0, 2, 4, 8, 24 and 48 hr). At the end of the incubation period, the medium is aspirated from the well and the cell monolayer is washed with cold phosphate buffered saline, pH 7.4. The washed cell monolayer is treated with 1.0 ml ice-cold 70% methanol:water, scraped and harvested into a centrifuge tube and then sonicated for 1 min at 4° C. The resulting cell lysate is stored overnight at −80° C. and subsequently used to extract the metabolites of Compound 9. Isolation of Compound 9 and the intracellular metabolites of Compound 9 from plated primary human hepatocytes uses similar experimental conditions, except that InVitroGro Medium is used as the cell culture medium.\n(§3) Sample Analysis for intracellular nucleoside metabolites: The cell lysate samples are thawed on ice, and subjected to two freeze/thaw cycles in a dry ice/acetone bath. Cells extracts are vortexed and centrifuged at 16000 g for 5 min at 4° C. and 40 μL of supernatant is injected for analysis using a API4000 triple quadrupole system. The Shimadzu LC autosampler is set at 4° C. to minimize evaporation. Compound 9 mono-, di- and triphosphate (Compound 25) are separated using a pH gradient on a Biobasic AX, 3.0×50 mm column maintained at 40° C. […] The respective metabolites are identified and quantified by comparing their chromatographic profiles and peak area response with those of authentic standards."}, "[2]": {"test": "In vitro anabolism of Compound 9, intracellular triphosphate in primary human hepatocytes", "type": "in vitro ADME", "settings": "human, plated primary human hepatocytes, Human Hepatocytes", "procedure": "as §1, §2, §3"}, "[3]": {"target": "T2, HCV NS5bΔ55 (genotype 1b) (Hepatitis C virus genotype 1b, UniProt P26663)", "T2 construct": "100 nM HCV NS5bΔ55 (genotype 1b) in a 50 μl reaction mixture", "T2 sequence (P26663 2420-2955, stated change not applied)": "as the sequence (P26663 2420-2955) above", "test": "HCV Polymerase Inhibition Assay", "type": "biochemical", "procedure": "Poly r(U) RNA template (Sigma) is employed for the HCV NS5b polymerase inhibition assay using a NS5bΔ55 (genotype 1b) purified enzyme. The kinetic constant, Km, is determined for the Poly r(U) template and ATP using a non-linear, least squares fit of initial rates as a function of substrate concentration assuming Michaelis-Menten kinetics.\nStandard RdRp assays consist of 20 μg/mL Poly r(U) RNA template and 100 nM HCV NS5bΔ55 (genotype 1b) in a 50 μl reaction mixture containing 20 mM Tris-HCl, 5 mM MgCl2, 5 mM MnCl2, 3 mM DTT, 72 μM ATP, and 0.019 μM [α-^33P]ATP. Elongation reactions are initiated by the addition of ATP, and proceed for 60 min at 25° C. Reactions are quenched by the addition of 0.2 M EDTA, and product formation is collected by filtration through Multiscreen plates (Millipore). Quantification of product formation was performed using TopCount (Perkin Elmer). The inhibitor concentration at which the enzyme catalysed rate is reduced by half (IC50) is determined using a computer program for curve fitting."}, "[4]": {"system": "Huh-7-HCV subgenomic replicon cells", "test": "In vitro anabolism of Compound 9, intracellular triphosphate in replicon cells", "type": "in vitro ADME, human", "settings": "Huh-7 replicon cells; 24 hours incubation with Compound 9 at 10 μM", "procedure": "as §1\nas §2, with “The resulting cell lysate is stored overnight at −80° C. and subsequently used to extract the metabolites of Compound 9. Isolation of Compound 9 and the intracellular metabolites of Compound 9 from plated primary human hepatocytes uses similar experimental conditions, except that InVitroGro Medium is used as the cell culture medium.” left out\n(§4) Sample Analysis for intracellular nucleoside metabolites: The cell lysate samples are thawed on ice, and subjected to two freeze/thaw cycles in a dry ice/acetone bath. […] The respective metabolites are identified and quantified by comparing their chromatographic profiles and peak area response with those of authentic standards."}, "[5]": {"test": "In vitro anabolism of Compound 9, intracellular triphosphate in replicon cells", "type": "in vitro ADME, human", "settings": "human, Huh-7 cells carrying an HCV subgenomic replicon, Huh-7 replicon cells", "procedure": "as §1\nas §2, with “The resulting cell lysate is stored overnight at −80° C. and subsequently used to extract the metabolites of Compound 9. Isolation of Compound 9 and the intracellular metabolites of Compound 9 from plated primary human hepatocytes uses similar experimental conditions, except that InVitroGro Medium is used as the cell culture medium.” left out\nas §4"}, "[6]": {"settings": "read-out: Triphosphate decay half-life, Elimination phase (β, h)"}, "[7]": {"settings": "read-out: Triphosphate decay half-life, Initial phase (α, h) (converted)"}},
  "data": [
    {"smiles": "C[C@@]1(O)[C@H](O)[C@@H](COP(=O)(O)OP(=O)(O)OP(=O)(O)O)O[C@H]1c1ccc2c(N)ncnn12", "note": "[Compound 25, 4-amino-7-(2-C-methyl-β-D-ribofuranosyl)-pyrrolo[2,1-f][1,2,4]triazine 5′-triphosphate]", "values": [
      {"measurement": "Ki", "setting": "HCV NS5b polymerase", "result": 80, "unit": "nM"},
      {"measurement": "Intracellular Triphosphate Concentration (pmol/million cells, 24 hr incubation)", "setting": "[1]; Human Hepatocytes, 24 hours incubation with Compound 9 at 10 μM", "result": 339, "unit": "pmol/million cells"},
      {"measurement": "intracellular triphosphate level in primary human hepatocytes relative to replicon cells", "setting": "[1]; same experimental conditions, 10 μM Compound 9, 24 hours", "result": "~60", "unit": "fold"},
      {"measurement": "half-life at 10 μM", "setting": "[2]; [6]", "result": "≥ 38", "unit": "h"},
      {"measurement": "half-life at 10 μM", "setting": "[2]; [7]", "result": 3.4, "unit": "h"},
      {"measurement": "IC50", "setting": "[3]", "result": 370, "unit": "nM"},
      {"measurement": "Intracellular Triphosphate Concentration (pmol/million cells, 24 hr incubation)", "setting": "[4]", "result": 5.7, "unit": "pmol/million cells"},
      {"measurement": "half-life at 10 μM", "setting": "[5]; [6]", "result": "≥ 38", "unit": "h"},
      {"measurement": "half-life at 10 μM", "setting": "[5]; [7]", "result": 0.59, "unit": "h"}
    ]}
  ]
}
